Source: ChEMBL document CHEMBL1201862, “PubChem BioAssay data set” (2004)
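Method: 48-hour compound exposure of cells in 96-well plates, five concentrations, linear interpolation of endpoints. GI50: concentration for 50% inhibition of growth.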 Calls of active or inactive are those of the source. Cut-off read from the data, not from the text of the source: active = GI50 up to about 1.1 µM and inactive = higher.

How the values were obtained:
Assay in all cases: growth of human tumour cells (NCI), 48 h
ACHN = test system: ACHN
CCRF-CEM = test system: CCRF-CEM
COLO 205 = test system: COLO 205
DU-145 = test system: DU-145
EKVX = test system: EKVX
HCC 2998 = test system: HCC 2998
IGROV-1 = test system: IGROV-1
MCF7 = test system: MCF7
MDA-MB-435 = test system: MDA-MB-435
MDA-N = test system: MDA-N
NCI-H23 = test system: NCI-H23
NCI-H460 = test system: NCI-H460
NCI-H522 = test system: NCI-H522
PC-3 = test system: PC-3
SK-OV-3 = test system: SK-OV-3
SN12C = test system: SN12C
SW-620 = test system: SW-620
UACC-62 = test system: UACC-62
SF-539 = test system: SF-539

Structure (SMILES) | GI50 (ACHN) | GI50 (CCRF-CEM) | GI50 (COLO 205) | GI50 (DU-145) | GI50 (EKVX) | GI50 (HCC 2998) | GI50 (IGROV-1) | GI50 (MCF7) | GI50 (MDA-MB-435) | GI50 (MDA-N) | GI50 (NCI-H23) | GI50 (NCI-H460) | GI50 (NCI-H522) | GI50 (PC-3) | GI50 (SK-OV-3) | GI50 (SN12C) | GI50 (SW-620) | GI50 (UACC-62) | GI50 (SF-539)
Cc1ccc2c(O)cc(-c3cc4ccccc4s3)nc2n1 | 47.6 µM (inactive) | > 100 µM (inactive) | > 100 µM (inactive) | > 100 µM (inactive) | 27.4 µM (inactive) | > 100 µM (inactive) | 6.65 µM (inactive) | 17.7 µM (inactive) | > 88.1 µM (inactive) | 98.9 µM (inactive) | > 56.2 µM (inactive) | 50.9 µM (inactive) | 33.9 µM (inactive) | > 100 µM (inactive) | 45.1 µM (inactive) | > 100 µM (inactive) | > 100 µM (inactive) | > 68.7 µM (inactive) | –
Cc1nc2ccccc2nc1N1CCCC1 | > 100 µM (inactive) | – | > 100 µM (inactive) | > 100 µM (inactive) | 34.2 µM (inactive) | > 100 µM (inactive) | > 100 µM (inactive) | > 100 µM (inactive) | > 100 µM (inactive) | > 100 µM (inactive) | > 100 µM (inactive) | > 100 µM (inactive) | > 100 µM (inactive) | > 100 µM (inactive) | > 100 µM (inactive) | > 100 µM (inactive) | > 100 µM (inactive) | > 100 µM (inactive) | –
CCn1c(O)c(C(=O)NC(C)c2ccc([N+](=O)[O-])cc2)c(=O)n(CC)c1=S (centres undefined) | 3.1 µM (inactive) | 1.59 µM (inactive) | 1.81 µM (inactive) | 2.54 µM (inactive) | 3.23 µM (inactive) | 3.29 µM (inactive) | 2.75 µM (inactive) | 2.34 µM (inactive) | 3.62 µM (inactive) | 3.59 µM (inactive) | 1.77 µM (inactive) | 2.41 µM (inactive) | – | 0.773 µM (active) | 3.09 µM (inactive) | 3.52 µM (inactive) | 2.43 µM (inactive) | 2.17 µM (inactive) | 3.93 µM (inactive)
CCOC(=O)C1CN(C2CC2)CCC1=O (centres undefined) | > 100 µM (inactive) | > 100 µM (inactive) | > 100 µM (inactive) | > 100 µM (inactive) | > 100 µM (inactive) | > 100 µM (inactive) | > 100 µM (inactive) | > 100 µM (inactive) | > 100 µM (inactive) | > 100 µM (inactive) | > 100 µM (inactive) | > 100 µM (inactive) | – | > 100 µM (inactive) | > 100 µM (inactive) | > 100 µM (inactive) | > 100 µM (inactive) | > 100 µM (inactive) | –
Nn1c(CCCCCCCCc2nnc(-c3c(O)ccc4ccccc34)n2N)nnc1-c1c(O)ccc2ccccc12 | > 100 µM (inactive) | – | > 100 µM (inactive) | > 100 µM (inactive) | – | > 100 µM (inactive) | > 100 µM (inactive) | > 100 µM (inactive) | > 100 µM (inactive) | > 100 µM (inactive) | > 100 µM (inactive) | > 100 µM (inactive) | > 100 µM (inactive) | > 100 µM (inactive) | > 100 µM (inactive) | > 100 µM (inactive) | > 100 µM (inactive) | > 100 µM (inactive) | > 100 µM (inactive)
CCCCNc1nc(N)nc(Nc2ccc(Br)cc2)c1N=O | 60.3 µM (inactive) | 42.1 µM (inactive) | 47 µM (inactive) | 96.8 µM (inactive) | > 100 µM (inactive) | 87.7 µM (inactive) | > 100 µM (inactive) | 74.6 µM (inactive) | > 100 µM (inactive) | > 100 µM (inactive) | > 100 µM (inactive) | 70 µM (inactive) | 36.4 µM (inactive) | 67.5 µM (inactive) | – | 58.7 µM (inactive) | > 100 µM (inactive) | 62.7 µM (inactive) | 80.2 µM (inactive)
CC1(C)CC[C@]2(C(=O)O)CC[C@]3(C)C(=CC[C@@H]4[C@@]5(C)CC[C@H](OC6OC(C(=O)O)C(O)C(O)C6O)C(C)(C)[C@@H]5CC[C@]43C)[C@@H]2C1 (some centres undefined) | 16.1 µM (inactive) | 21 µM (inactive) | 16.9 µM (inactive) | 16.8 µM (inactive) | 24.5 µM (inactive) | 18.8 µM (inactive) | 20 µM (inactive) | 24.9 µM (inactive) | 19.2 µM (inactive) | 18.4 µM (inactive) | 18.9 µM (inactive) | 18.7 µM (inactive) | 19.4 µM (inactive) | 18.2 µM (inactive) | 19.5 µM (inactive) | 16.8 µM (inactive) | 17.4 µM (inactive) | 18.4 µM (inactive) | –
CC(=O)Oc1cc(C)c(OC(C)=O)c2c1[C@H]1CC[C@]3(C)[C@@H](OC(C)=O)CC[C@H]3[C@@H]1CC2 | 14.6 µM (inactive) | 17.9 µM (inactive) | – | 16.6 µM (inactive) | 13.5 µM (inactive) | 13.9 µM (inactive) | 17.1 µM (inactive) | 20.6 µM (inactive) | 14.4 µM (inactive) | 14.6 µM (inactive) | 18.4 µM (inactive) | 17.7 µM (inactive) | 16.9 µM (inactive) | 13.9 µM (inactive) | – | 16.7 µM (inactive) | 18.4 µM (inactive) | 17.7 µM (inactive) | 19.2 µM (inactive)
Cc1cccc(Nc2cn(CCOc3ccccc3)c(=O)n(CCOc3ccccc3)c2=O)c1 | > 100 µM (inactive) | > 100 µM (inactive) | > 100 µM (inactive) | > 100 µM (inactive) | 2.54 µM (inactive) | > 100 µM (inactive) | 23.3 µM (inactive) | > 100 µM (inactive) | > 100 µM (inactive) | > 100 µM (inactive) | > 100 µM (inactive) | > 100 µM (inactive) | – | > 100 µM (inactive) | – | > 100 µM (inactive) | > 100 µM (inactive) | > 100 µM (inactive) | –
CC(C)=CCC/C(C)=C/COC(C)(C)C1=CCC(C)CC1.CC(C)=CCC/C(C)=C/COC1CC(C)CCC1=C(C)C (centres undefined) | > 100 µM (inactive) | – | > 100 µM (inactive) | > 100 µM (inactive) | > 100 µM (inactive) | > 100 µM (inactive) | > 100 µM (inactive) | 65.3 µM (inactive) | > 100 µM (inactive) | > 100 µM (inactive) | > 100 µM (inactive) | > 100 µM (inactive) | > 100 µM (inactive) | > 100 µM (inactive) | > 100 µM (inactive) | > 100 µM (inactive) | > 100 µM (inactive) | > 100 µM (inactive) | 6.07 µM (inactive)
CCC1c2[nH]c3ccccc3c2C[C@H]2C(=O)N3CCC[C@H]3C(=O)N12 (some centres undefined) | > 100 µM (inactive) | – | > 100 µM (inactive) | > 100 µM (inactive) | > 100 µM (inactive) | > 100 µM (inactive) | > 100 µM (inactive) | > 100 µM (inactive) | > 100 µM (inactive) | > 100 µM (inactive) | > 100 µM (inactive) | – | 75.7 µM (inactive) | 37.4 µM (inactive) | > 100 µM (inactive) | > 100 µM (inactive) | 92.9 µM (inactive) | 70.6 µM (inactive) | –
CCCC1(N2C(=O)c3ccc4c5c(ccc(c35)C2=O)N(C2(CCC)CCCCC2)C4=O)CCCCC1 | > 100 µM (inactive) | – | > 100 µM (inactive) | > 100 µM (inactive) | – | > 100 µM (inactive) | – | > 100 µM (inactive) | > 100 µM (inactive) | > 100 µM (inactive) | > 100 µM (inactive) | > 100 µM (inactive) | > 100 µM (inactive) | > 100 µM (inactive) | > 100 µM (inactive) | > 100 µM (inactive) | > 100 µM (inactive) | > 100 µM (inactive) | > 100 µM (inactive)
Cn1c(-c2ccccc2)cc(-c2ccc3c(c2)OCO3)c1-c1cccs1 | > 100 µM (inactive) | > 100 µM (inactive) | > 100 µM (inactive) | > 100 µM (inactive) | > 100 µM (inactive) | > 100 µM (inactive) | > 100 µM (inactive) | > 100 µM (inactive) | > 100 µM (inactive) | > 100 µM (inactive) | 64.7 µM (inactive) | > 100 µM (inactive) | – | > 100 µM (inactive) | > 100 µM (inactive) | > 100 µM (inactive) | > 100 µM (inactive) | > 100 µM (inactive) | > 100 µM (inactive)
COc1ccc2[nH]c3c(c2c1)CC(=O)N1CCC[C@H](C1)CC31OCCCO1 | > 100 µM (inactive) | 64.6 µM (inactive) | > 100 µM (inactive) | > 100 µM (inactive) | > 100 µM (inactive) | > 100 µM (inactive) | 92.7 µM (inactive) | > 100 µM (inactive) | > 100 µM (inactive) | > 100 µM (inactive) | > 100 µM (inactive) | > 100 µM (inactive) | – | > 100 µM (inactive) | > 100 µM (inactive) | > 100 µM (inactive) | > 100 µM (inactive) | 77.1 µM (inactive) | –
NCC1Nc2ccccc2[C@@H](O)C1O (some centres undefined) | > 100 µM (inactive) | > 100 µM (inactive) | > 100 µM (inactive) | > 100 µM (inactive) | > 100 µM (inactive) | > 100 µM (inactive) | > 100 µM (inactive) | > 100 µM (inactive) | > 100 µM (inactive) | > 100 µM (inactive) | > 100 µM (inactive) | > 100 µM (inactive) | – | > 100 µM (inactive) | > 100 µM (inactive) | > 100 µM (inactive) | > 100 µM (inactive) | > 100 µM (inactive) | > 100 µM (inactive)
